This assay deals with T1, CRTH2 (Homo sapiens, UniProt Q9Y5Y4).
T1 construct: polymorphonuclear cells (0.5 ml; 10^6/ml cells) in PBS containing 0.9 mM CaCl2 and 0.5 mM MgCl2; endogenous in cells; host or cells: polymorphonuclear cells (eosinophils gated by flow cytometry)
T1 sequence (Q9Y5Y4 1-395): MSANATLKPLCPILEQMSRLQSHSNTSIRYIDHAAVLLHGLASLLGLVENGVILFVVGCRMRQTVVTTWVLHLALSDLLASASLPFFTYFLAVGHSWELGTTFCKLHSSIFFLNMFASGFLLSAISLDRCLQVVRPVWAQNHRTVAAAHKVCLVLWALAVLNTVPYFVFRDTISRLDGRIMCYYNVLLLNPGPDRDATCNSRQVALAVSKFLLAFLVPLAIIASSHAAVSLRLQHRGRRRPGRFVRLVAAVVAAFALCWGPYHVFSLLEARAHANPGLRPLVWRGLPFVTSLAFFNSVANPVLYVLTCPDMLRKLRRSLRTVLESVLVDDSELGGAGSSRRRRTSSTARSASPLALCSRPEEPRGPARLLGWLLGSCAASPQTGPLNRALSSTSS
Put plainly: DPBS CD11b Antagonist Assay. The format is cell-based. To be noted: polymorphonuclear cells in PBS, eosinophil CD11b expression, challenge with 15R-Methyl-PGD2 (10 nM). How it is done:
DPBS CD11b Antagonist Assay. The potential CRTH2 antagonist activity of certain compounds was tested using a CD11b expression assay using essentially the method described by Monneret et al. (J Pharmacol Exp Ther 304:349-55, 2003). Briefly, polymorphonuclear cells (0.5 ml; 10^6/ml cells) in PBS containing 0.9 mM CaCl2 and 0.5 mM MgCl2) were preincubated with various concentrations of test compounds at room temperature for 10 minutes before they were challenged with the agonist 15R-Methyl-PGD2 (10 nM). The incubations were terminated by the addition of ice-cold FACSFlow (BD Biosciences; Cat# 342003) and centrifugation (400 g for 5 minutes at 4° C.). The cells were then incubated for 30 minutes at 4° C. with a mixture of PE-labeled mouse anti-human VLA-4 (5 μl; BD Biosciences) and FITC-labeled mouse anti-human CD11b (10 μl; Beckman Coulter). The cells were then incubated with Optilyse C (0.25 ml; Beckman Coulter) for 15 minutes, centrifuged, and then fixed in PBS (0.4 ml; calcium and magnesium free) containing 1% formaldehyde. The distribution of fluorescence intensities among 60,000 cells was measured by flow cytometry. Eosinophils were gated out on the basis of their granularity (high side scatter) and labeling with VLA-4 (PE fluorescence). CD11b was then measured in the eosinophil region on the basis of fluorescence due to FITC. All data were corrected for the value obtained for the corresponding isotope control antibody.
The term IC50 denotes the point on the concentration scale where inhibition reaches its midpoint. Read a high IC50 as weaker potency. With `Cc1c(Cc2ccccc2S(=O)(=O)N2CCOCC2)c2c(n1CC(=O)O)CC(C)(C)CC2` [Example I-26, 2-(2,6,6-trimethyl-3-(2-(morpholinosulfonyl)benzyl)-4,5,6,7-tetrahydro-1H-indol-1-yl)acetic acid], the IC50 was < 5 nM. Regarding `CCOC(=O)Cn1c(C)c(Sc2ccc(C)cc2S(=O)(=O)N2CCCC2)c2c1CC(C)(C)CC2=O` [Example I-54, ethyl 2-(2,6,6-trimethyl-3-(4-methyl-2-(pyrrolidin-1-ylsulfonyl)phenylthio)-4-oxo-4,5,6,7-tetrahydro-1H-indol-1-yl)acetate], the IC50 fell in the range of 100 to 500 nM.

With `Cc1c(Cc2ccc(S(=O)(=O)NC3CC3)cc2)c2c(n1CC(=O)O)CCC(C)(C)C2` [Example I-15, 2-(3-(4-(N-Cyclopropylsulfamoyl)benzyl)-2,5,5-trimethyl-4,5,6,7-tetrahydro-1H-indol-1-yl)acetic acid], the half-inhibitory concentration (IC50) is < 5 nM.

`CCOC(=O)Cn1c(C)c(Cc2ccccc2S(=O)(=O)N2CCOCC2)c2c1CCC(C)(C)C2` [Example I-25, Ethyl 2-(2,5,5-trimethyl-3-(2-(morpholinosulfonyl)benzyl)-4,5,6,7-tetrahydro-1H-indol-1-yl)acetate] displayed an IC50 of 100 to 500 nM. The same measure for `Cc1c(Cc2ccccc2S(=O)(=O)N(C)C)c2c(n1CC(=O)O)CC(C)(C)CC2=O` [Example I-52, 2-(3-(2-(N,N-dimethylsulfamoyl)benzyl)-2,6,6-trimethyl-4-oxo-4,5,6,7-tetrahydro-1H-indol-1-yl)acetic acid]: < 5 nM.

The compound `CCOC(=O)Cn1c(C)c(Cc2ccccc2S(=O)(=O)N2CCOCC2)c2c1CC(C)(C)CC2=O` [Example I-56, ethyl 2-(2,6,6-trimethyl-3-(2-(morpholinosulfonyl)benzyl)-4-oxo-4,5,6,7-tetrahydro-1H-indol-1-yl)acetate] displayed an IC50 of 100 to 500 nM. For `CCOC(=O)Cn1c(C)c(Sc2ccc(F)cc2S(=O)(=O)N2CCCC2)c2c1CC(C)(C)CC2=O` [Example I-57, Ethyl 2-(3-(4-fluoro-2-(pyrrolidin-1-ylsulfonyl)phenylthio)-2,6,6-trimethyl-4-oxo-4,5,6,7-tetrahydro-1H-indol-1-yl)acetate], the IC50 was 5 to 100 nM. For `Cc1c(Cc2ccccc2S(=O)(=O)C2CCCCC2)c2c(n1CC(=O)O)CC(C)(C)CC2=O` [Example I-82, 2-(3-(2-(cyclohexylsulfonyl)benzyl)-2,6,6-trimethyl-4-oxo-4,5,6,7-tetrahydro-1H-indol-1-yl)acetic acid] the value was < 5 nM. `Cc1c(C(O)c2ccccc2S(=O)(=O)N2CCCC2)c2c(n1CC(=O)O)CC(C)(C)CC2=O` (centres unmarked) [Example I-50, 2-(3-(hydroxy(2-(pyrrolidin-1-ylsulfonyl)phenyl)methyl)-2,6,6-trimethyl-4-oxo-4,5,6,7-tetrahydro-1H-indol-1-yl)acetic acid]: the IC50 was > 500 nM. On to `Cc1c(Cc2ccccc2S(=O)(=O)N2CCOCC2)c2c(n1CC(=O)OC(C)C)CC(C)(C)CC2=O` [Example I-60, isopropyl 2-(2,6,6-trimethyl-3-(2-(morpholinosulfonyl)benzyl)-4-oxo-4,5,6,7-tetrahydro-1H-indol-1-yl)acetate], for which the IC50 was > 500 nM. For the compound `Cc1c(Cc2ccccc2S(=O)(=O)N2CCCC2)c2c(n1CC(=O)OCCN1CCOCC1)CC(C)(C)CC2=O` [Example I-62, 2-morpholinoethyl 2-(2,6,6-trimethyl-4-oxo-3-(2-(pyrrolidin-1-ylsulfonyl)benzyl)-4,5,6,7-tetrahydro-1H-indol-1-yl)acetate], the IC50 was < 5 nM. With `Cc1c(Sc2ccc(S(=O)(=O)N3CCOCC3)cc2)c2c(n1CC(=O)O)CCC(C)(C)C2` [Example I-37, 2-(2,5,5-trimethyl-3-(4-(morpholinosulfonyl)phenylthio)-4,5,6,7-tetrahydro-1H-indol-1-yl)acetic acid], the IC50 was < 5 nM. Regarding `Cc1c(Cc2ccccc2S(=O)(=O)N2CCCC2)c2c(n1CC(N)=O)CC(C)(C)CC2=O` [Example I-84, 2-(2,6,6-trimethyl-4-oxo-3-(2-(pyrrolidin-1-ylsulfonyl)benzyl)-4,5,6,7-tetrahydro-1H-indol-1-yl)acetamide], the IC50 was > 500 nM. For the compound `Cc1c(Cc2cccc(S(=O)(=O)N3CCOCC3)c2)c2c(n1CC(=O)O)CCC(C)(C)C2` [Example I-27, 2-(2,5,5-trimethyl-3-(3-(morpholinosulfonyl)benzyl)-4,5,6,7-tetrahydro-1H-indol-1-yl)acetic acid], the IC50 was in the range of 5 to 100 nM. The same measure for `CCOC(=O)Cn1c(C)c(Sc2ccc(Br)cc2S(=O)(=O)N2CCCC2)c2c1CC(C)(C)CC2=O` [Example I-53, ethyl 2-(3-(4-bromo-2-(pyrrolidin-1-ylsulfonyl)phenylthio)-2,6,6-trimethyl-4-oxo-4,5,6,7-tetrahydro-1H-indol-1-yl)acetate]: > 500 nM; for `Cc1c(Cc2ccccc2S(=O)(=O)N2CCOCC2)c2c(n1[C@H](C)C(=O)O)CCC(C)(C)C2` [Example I-35, (R)-2-(2,5,5-trimethyl-3-(2-(morpholinosulfonyl)benzyl)-4,5,6,7-tetrahydro-1H-indol-1-yl)propanoic acid]: < 5 nM; for `COC(=O)Cn1c(C)c(Cc2ccccc2S(=O)(=O)N2CCCC2)c2c1CC(C)(C)CC2=O` [Example I-58, Methyl 2-(2,6,6-trimethyl-4-oxo-3-(2-(pyrrolidin-1-ylsulfonyl)benzyl)-4,5,6,7-tetrahydro-1H-indol-1-yl)acetate]: 5 to 100 nM. As to `Cc1c(Cc2ccc(S(=O)(=O)N(C)C)cc2)c2c(n1CC(=O)O)CCC(C)(C)C2` [Example I-18, 2-(3-(4-(N,N-Dimethylsulfamoyl)benzyl)-2,5,5-trimethyl-4,5,6,7-tetrahydro-1H-indol-1-yl)acetic acid], the IC50 was < 5 nM. In the case of `Cc1c(S(=O)(=O)N(C)c2ccccc2)c2c(n1CC(=O)O)CC(C)(C)CC2=O` [Example I-75, 2-(2,6,6-trimethyl-3-(N-methyl-N-phenylsulfamoyl)-4-oxo-4,5,6,7-tetrahydro-1H-indol-1-yl)acetic acid], the IC50 is > 500 nM. On to `Cc1c(Cc2ccccc2S(=O)(=O)N2CCCC2)c2c(n1CC(=O)O)CC(C)(C)C(F)(F)C2=O` [Example I-96, 2-(5,5-difluoro-2,6,6-trimethyl-4-oxo-3-(2-(pyrrolidin-1-ylsulfonyl)benzyl)-4,5,6,7-tetrahydro-1H-indol-1-yl)acetic acid], for which the IC50 was < 5 nM.

`COC(=O)Cn1c(C)c(Cc2ccccc2S(=O)(=O)N2CCOCC2)c2c1CC(C)(C)CC2=O` [Example I-59, methyl 2-(2,6,6-trimethyl-3-(2-(morpholinosulfonyl)benzyl)-4-oxo-4,5,6,7-tetrahydro-1H-indol-1-yl)acetate]: the IC50 was 5 to 100 nM.

For the compound `Cc1c(Cc2ccccc2S(=O)(=O)c2cccs2)c2c(n1CC(=O)O)CC(C)(C)CC2=O` [Example I-81, 2-(2,6,6-trimethyl-4-oxo-3-(2-(thiophen-2-ylsulfonyl)benzyl)-4,5,6,7-tetrahydro-1H-indol-1-yl)acetic acid], the IC50 was < 5 nM. For the compound `Cc1c(Cc2ccccc2S(=O)(=O)N2CCCC2)c2c(n1CC(=O)O)CC(C)(C)C(C)(C)C2=O` [Example I-95, 2-(2,5,5,6,6-pentamethyl-4-oxo-3-(2-(pyrrolidin-1-ylsulfonyl)benzyl)-4,5,6,7-tetrahydro-1H-indol-1-yl)acetic acid], the IC50 was < 5 nM. `Cc1c(Cc2ccc(S(=O)(=O)N3CCCCCC3)cc2)c2c(n1CC(=O)O)CCC(C)(C)C2` [Example I-16, 2-(3-(4-(Azepan-1-ylsulfonyl)benzyl)-2,5,5-trimethyl-4,5,6,7-tetrahydro-1H-indol-1-yl)acetic acid] registered an IC50 of 5 to 100 nM. Take `CCOC(=O)Cn1c(C)c(Cc2ccccc2S(=O)(=O)N(C)c2ccccc2)c2c1CC(C)(C)CC2=O` [Example I-66, ethyl 2-(2,6,6-trimethyl-3-(2-(N-methyl-N-phenylsulfamoyl)benzyl)-4-oxo-4,5,6,7-tetrahydro-1H-indol-1-yl)acetate]: the IC50 was in the range of 5 to 100 nM. Consider `Cc1c(Cc2ccccc2S(=O)(=O)N2CCCC2)c2c(n1CC(=O)O)CCCC2=O` [Example I-77, 2-(2-methyl-4-oxo-3-(2-(pyrrolidin-1-ylsulfonyl)benzyl)-4,5,6,7-tetrahydro-1H-indol-1-yl)acetic acid], for which the concentration for half-maximal inhibition (IC50) was < 5 nM.
